Marks after values point to notes of the source that are not given here.
Tests used:
PMM enzyme = PMM enzyme activity in PMM2-CDG patient fibroblasts treated with epalrestat (spectrophotometric); assay type: cell-based, human; conditions: for Fold change 5 μM epalrestat (PMM enzyme activity) / Fold change 10 μM epalrestat (PMM enzyme activity) / Fold change 20 μM epalrestat (PMM enzyme activity): 24 hours, baseline = 1; for Highest fold change (PMM enzyme activity): at best dose; for Best dose: of 5, 10, 20 μM
Experimental: Effect of epalrestat on […] enzyme in vitro: Patient-derived and control fibroblasts (GM5381, GM5400; GM5757, GM00038, GM8680, GM01863, GM8400; Coriell Institute, Camden, NJ) were cultured in Minimum Essential Media (MEM; Gibco, Carlsbad, CA; 1 g/L glucose) supplemented with 10% Fetal Bovine Serum (FBS; Gibco), […] (P/S) and maintained in an incubator at 37° C., 5% CO2 in the presence and absence of epalrestat for 24 hours (Iyer et al., Disease Models & Mechanisms 12:11, 2019). Cells were cultured and harvested by trypsinization with 0.05% Trypsin-EDTA (Gibco). PMM and phosphomannose isomerase (MPI) activity were assayed by spectrophotometric measurements (Van Schaftingen and Jaeken, FEBS Lett 377:318-320, 1995). The effects of epalrestat (5 μM, 10 μM, or 20 μM) on PMM-deficient fibroblasts of 11 patients (P1-P6, P8, P10, P17, P19, P24) were evaluated.

urine mannitol = experiment: Urine mannitol (GC/MS) in a PMM2-CDG pediatric patient on oral epalrestat therapy; assay type: in vivo, human; conditions: for urine mannitol level: before therapy 648.6, controls <20
Experimental: Clinical studies: Epalrestat was used as an N of 1 study for a single pediatric patient with PMM2-CDG. An open label, single patient compassionate use study designed to assess the safety and tolerability of oral epalrestat therapy in a child with PMM2-CDG. The patient received […]. Concomitant medications, vital signs, blood draw for serum chemistry and hematology, and blood levels of epalrestat were collected at each study visit during a 6 month period to evaluate the safety and tolerability of oral epalrestat therapy in a child with PMM2-CDG. The Nijmegen Pediatric CDG Rating Scale (NPCRS) assessment was administered at the start of the study and at 6 months. Urine polyols were collected at the start, at 4 months, and at 6 months of therapy, and were measured as described elsewhere (Jansen et al., Clin Chim Acta 1986, 157:277-294). Briefly, 200 μl urine specimens were spiked with a mixture of labeled internal standards, allowed to equilibrate, and evaporated. […] Specimens were analyzed by GC/MS, selected ion monitoring using ammonia chemical ionization and a stable isotope dilution method. In general, the following protocol was used: • Creatinine (CR) values (mg/dL) were determined for all samples. • Multiplication factors were calculated for each patient sample. • 100 μL of Polyol QC Mix for the QC Standard and 100 μL water were pipetted into a labeled 16×100 screw-cap glass tube. • 200 μL each of low control and high control were pipetted into corresponding labeled 16×100 mm screw-cap glass tubes. • 200 μL of each patient sample was pipetted into a corresponding labeled 16×100 mm screw cap glass tube. […]
Urine sorbitol and mannitol levels also were quantified using similar processing of samples and GC/MS settings, monitoring ions specific for sorbitol and mannitol for peak area ratio calculations.
Patient assessment: Prior to the first dose of epalrestat and at 1, 2, 3, 6, 8, 9, 12 months during treatment, concomitant medications and vital signs were recorded and the patient was evaluated using the NPCRS. […]

CC(/C=C1\SC(=S)N(CC(=O)O)C1=O)=C\c1ccccc1 [epalrestat]
patient fibroblasts that responded (PMM enzyme; 10 μM epalrestat, 8/10): 80% | increase in PMM enzyme activity (PMM enzyme; fibroblasts of P1, 5 μM epalrestat): 43% | increase in PMM enzyme activity (PMM enzyme; fibroblasts of P2, 10 μM epalrestat): 33% | increase in PMM enzyme activity (PMM enzyme; fibroblasts of P3, 10 μM epalrestat): 35% | increase in PMM enzyme activity (PMM enzyme; fibroblasts of P4, 20 μM epalrestat): 50% | increase in PMM enzyme activity (PMM enzyme; fibroblasts of P5, 5 μM epalrestat): 35% | increase in PMM enzyme activity (PMM enzyme; fibroblasts of P8, 10 μM epalrestat): 16% | increase in PMM enzyme activity (PMM enzyme; fibroblasts of P10, 5 μM epalrestat): 22% | increase in PMM enzyme activity (PMM enzyme; fibroblasts of P17, 20 μM epalrestat): 10% | increase in PMM enzyme activity (PMM enzyme; fibroblasts of P19, 20 μM epalrestat): 20% | increase in PMM enzyme activity (PMM enzyme; fibroblasts of P24, 10 μM epalrestat): 36% | Fold change 5 μM epalrestat (PMM enzyme activity) (PMM enzyme; fibroblasts of subject P1, 5 μM): 1.43 | Fold change 10 μM epalrestat (PMM enzyme activity) (PMM enzyme; fibroblasts of subject P1): 1.2 | Fold change 20 μM epalrestat (PMM enzyme activity) (PMM enzyme; fibroblasts of subject P1): 1.2 | Highest fold change (PMM enzyme activity) (PMM enzyme; fibroblasts of subject P1): 1.43* | Best dose (PMM enzyme; fibroblasts of subject P1): 5 µM | Fold change 5 μM epalrestat (PMM enzyme activity) (PMM enzyme; fibroblasts of subject P2, 5 μM): 1.01 | Fold change 10 μM epalrestat (PMM enzyme activity) (PMM enzyme; fibroblasts of subject P2): 1.33 | Fold change 20 μM epalrestat (PMM enzyme activity) (PMM enzyme; fibroblasts of subject P2): 0.7 | Highest fold change (PMM enzyme activity) (PMM enzyme; fibroblasts of subject P2): 1.33 | Best dose (PMM enzyme; fibroblasts of subject P2): 10 µM | Fold change 5 μM epalrestat (PMM enzyme activity) (PMM enzyme; fibroblasts of subject P3, 5 μM): 0.86 | Fold change 10 μM epalrestat (PMM enzyme activity) (PMM enzyme; fibroblasts of subject P3): 1.35 | Fold change 20 μM epalrestat (PMM enzyme activity) (PMM enzyme; fibroblasts of subject P3): 0.9 | Highest fold change (PMM enzyme activity) (PMM enzyme; fibroblasts of subject P3): 1.35 | Best dose (PMM enzyme; fibroblasts of subject P3): 10 µM | Fold change 5 μM epalrestat (PMM enzyme activity) (PMM enzyme; fibroblasts of subject P4, 5 μM): 1.26 | Fold change 10 μM epalrestat (PMM enzyme activity) (PMM enzyme; fibroblasts of subject P4): 1.36 | Fold change 20 μM epalrestat (PMM enzyme activity) (PMM enzyme; fibroblasts of subject P4): 1.5 | Highest fold change (PMM enzyme activity) (PMM enzyme; fibroblasts of subject P4): 1.36 | Best dose (PMM enzyme; fibroblasts of subject P4): 10 µM | Fold change 5 μM epalrestat (PMM enzyme activity) (PMM enzyme; fibroblasts of subject P5, 5 μM): 1.35 | Fold change 10 μM epalrestat (PMM enzyme activity) (PMM enzyme; fibroblasts of subject P5): 0.93 | Fold change 20 μM epalrestat (PMM enzyme activity) (PMM enzyme; fibroblasts of subject P5): 0.9 | Highest fold change (PMM enzyme activity) (PMM enzyme; fibroblasts of subject P5): 1.35 | Best dose (PMM enzyme; fibroblasts of subject P5): 5 µM | Fold change 5 μM epalrestat (PMM enzyme activity) (PMM enzyme; fibroblasts of subject P6, 5 μM): 0.98 | Fold change 10 μM epalrestat (PMM enzyme activity) (PMM enzyme; fibroblasts of subject P6): 0.97 | Fold change 20 μM epalrestat (PMM enzyme activity) (PMM enzyme; fibroblasts of subject P6): 0.6 | Fold change 5 μM epalrestat (PMM enzyme activity) (PMM enzyme; fibroblasts of subject P8, 5 μM): 1.07 | Fold change 10 μM epalrestat (PMM enzyme activity) (PMM enzyme; fibroblasts of subject P8): 1.16 | Fold change 20 μM epalrestat (PMM enzyme activity) (PMM enzyme; fibroblasts of subject P8): 1.1 | Highest fold change (PMM enzyme activity) (PMM enzyme; fibroblasts of subject P8): 1.16 | Best dose (PMM enzyme; fibroblasts of subject P8): 10 µM | Fold change 5 μM epalrestat (PMM enzyme activity) (PMM enzyme; fibroblasts of subject P10, 5 μM): 1.22 | Fold change 10 μM epalrestat (PMM enzyme activity) (PMM enzyme; fibroblasts of subject P10): 1.16 | Fold change 20 μM epalrestat (PMM enzyme activity) (PMM enzyme; fibroblasts of subject P10): 1.2 | Highest fold change (PMM enzyme activity) (PMM enzyme; fibroblasts of subject P10): 1.22 | Best dose (PMM enzyme; fibroblasts of subject P10): 5 µM | Fold change 5 μM epalrestat (PMM enzyme activity) (PMM enzyme; fibroblasts of subject P17, 5 μM): 0.9 | Fold change 10 μM epalrestat (PMM enzyme activity) (PMM enzyme; fibroblasts of subject P17): 0.75 | Fold change 20 μM epalrestat (PMM enzyme activity) (PMM enzyme; fibroblasts of subject P17): 1.1 | Highest fold change (PMM enzyme activity) (PMM enzyme; fibroblasts of subject P17): 1.1 | Best dose (PMM enzyme; fibroblasts of subject P17): 20 µM | Fold change 5 μM epalrestat (PMM enzyme activity) (PMM enzyme; fibroblasts of subject P19, 5 μM): 0.84 | Fold change 10 μM epalrestat (PMM enzyme activity) (PMM enzyme; fibroblasts of subject P19): 1.1 | Fold change 20 μM epalrestat (PMM enzyme activity) (PMM enzyme; fibroblasts of subject P19): 1.2 | Highest fold change (PMM enzyme activity) (PMM enzyme; fibroblasts of subject P19): 1.2 | Best dose (PMM enzyme; fibroblasts of subject P19): 20 µM | Fold change 5 μM epalrestat (PMM enzyme activity) (PMM enzyme; fibroblasts of subject P24, 5 μM): 0.78 | Fold change 10 μM epalrestat (PMM enzyme activity) (PMM enzyme; fibroblasts of subject P24): 1.36 | Fold change 20 μM epalrestat (PMM enzyme activity) (PMM enzyme; fibroblasts of subject P24): 0.9 | Highest fold change (PMM enzyme activity) (PMM enzyme; fibroblasts of subject P24): 1.36 | Best dose (PMM enzyme; fibroblasts of subject P24): 10 µM | increase in PMM enzyme activity (PMM enzyme; nine out of ten patients, 5 μM, 10 μM or 20 μM epalrestat): ≥ 10% | maximal increase in PMM activity (PMM enzyme; patient fibroblasts, with at least one of 5, 10, 20 μM): ≤ 50% | urine mannitol level (urine mannitol; 6 months of epalrestat therapy): 25.09 mmol/mol creatinine | urine mannitol level (urine mannitol; after 3 months of epalrestat therapy): 37.32 mmol/mol creatinine | urinary mannitol level (urine mannitol; at 4 months of epalrestat treatment, pretreatment 648.6, control less than 10): 37.32 mmol/mol creatinine

From patent US20240003908A1, “POLYOL BIOMARKERS FOR CONGENITAL DISORDERS OF GLYCOSYLATION” (Mayo Foundation for Medical Education and Research, priority 2020, published 2024)
